In patent publication US20220251109A1, “OXAAZAQUINAZOLINE-7(8H)-KETONE COMPOUND, PREPARATION METHOD THEREFOR AND PHARMACEUTICAL APPLICATION THEREOF” (GENFLEET THERAPEUTICS (SHANGHAI) INC., priority 2019, published 2022):
pIC50: −log10 of the molar value. Read-outs that look alike come from different tables or passages of the source.

Experiments:
Assay type in all cases: cell-based, human
[1] = system: NCI-H358 cells (Kras G12C mutation); assay: Cell proliferation inhibition experiment, 3D model, CellTiter-Glo (NCI-H358); conditions: NCI-H358, 3D sphere plate, 5 days, 2% FBS
Description: (§1) NCI-H358 was a human non-small cell lung cancer cell line with Kras G12C mutation, cultured in 10% FBS RPMI-1640 medium; A549 was a human lung adenocarcinoma cell line with Kras G12S mutation, cultured in 10% FBS F-12K medium. The cells in the logarithmic growth phase was taken, digested with trypsin EDTA, collected and counted, and H358 was adjusted to 1.8E4 cells/ml using 2% FBS RPMI-1640 medium, and A549 was adjusted to 8.9E3 cells/ml using 2% FBS F-12K medium; 800 (45 μl) H358 or 400 (45 μl) A549 cells were seeded in a 384-well sphere plate respectively, cultured overnight to establish a 3D cell model. DMSO was used to prepare 1000× compound 3.16-fold gradient concentration stock solution, and 2% FBS medium was used to dilute 100-fold to 10× compound stock solution. On the second day after cell seeding, 5 μl 10× compound stock solution was added to each cell culture well, the final concentration was 1×, and DMSO content was 0.1%. DMSO was used as the experimental control (control) and 2% FBS medium as the blank control (blank). After the compound and cells were added and cultured for 5 days, 25 μl CellTiter-Glo working solution was added to each well, mixed at 400 rpm and incubated for 30 minutes. After 30 minutes at room temperature, 40 μl of the mixture was transferred to a 384-well plate with a non-transparent white bottom, the luminescence chemiluminescence value was read, and the cells proliferation inhibition rate IR (%)=(RLU control-RLU compound)/(RLU control-RLU blank)×100% was calculated, Prism 6 four-parameter method was used to fit the compound's gradient dilution concentration and the corresponding cell proliferation inhibition rate, and the IC50 value was calculate.

[2] = system: A549 cells (Kras G12S mutation); assay: Cell proliferation inhibition experiment, 3D model, CellTiter-Glo (A549); conditions: A549, 3D sphere plate, 5 days, 2% FBS
Description: as §1

[3] = system: p-ERK in MIA PaCa2 cells (Kras G12C mutation); assay: Cell p-ERK detection experiment (HTRF) in MIA PaCa2 cells; conditions: compound 2 hours
Description: MIA PaCa2 was a human pancreatic cancer cell line with Kras G12C mutation, cultured in 10% FBS+2.5% Horse serum DMEM medium. The cells in the logarithmic growth phase were taken, digested with enzyme EDTA, collected, counted and 2.5E4 cells were seeded in a 96-well cell culture plate, cultured overnight. DMSO was used to prepare 1000× compound 3.16-fold gradient concentration stock solution, and medium was used to dilute 200-fold to 5× compound stock solution. On the second day after cell seeding, 5× compound stock solution was added to each cell culture well, the final concentration was 1×, and DMSO content was 0.1%. DMSO was used as an experimental control (control). After the compound was added and cultured for two hours, the remaining medium was removed. 50 ul cell lysis buffer was added to each well, mixed and incubated for 30 minutes, then 16 ul of the mixture was transferred to a 96-well plate with a non-transparent white bottom, and 16 ul cell lysis buffer was added to blank wells. After the completion of the transfer, 4 ul p-ERK HTRF antibody mixture was added to each well, incubated for 4 hours and the fluorescence value was read. The compound inhibition rate IR (%)=(RLU control-RLU compound)/(RLU control-RLU blank)×100% was calculated, Prism 8 four-parameter method was used to fit the compound's gradient dilution concentration and the corresponding cell proliferation inhibition rate, and the IC50 value was calculate.

[4] = system: MIA PaCa-2 cells (Kras G12C mutation); assay: Cell proliferation inhibition experiment, 3D model, CellTiter-Glo (MIA PaCa-2); conditions: MIA PaCa-2, 3D sphere plate, 5 days, read-out: MIA-PaCa2 IC50
Description: MIA PaCa2 was a human pancreatic cancer cell line with Kras G12C mutation, cultured in 10% FBS+2.5% Horse serum DMEM medium; A549 was a human lung adenocarcinoma cell line with Kras G12S mutation, cultured in 10% FBS F-12K medium. The cells in the logarithmic growth phase were taken, digested with enzyme EDTA, collected, counted and 200 MIA PaCa-2 or 400 A549 cells were seeded in a 384-well sphere plate respectively, cultured overnight to establish a 3D cell model. DMSO was used to prepare 1000× compound 3.16-fold gradient concentration stock solution, and medium was used to dilute 100-fold to 10× compound stock solution. On the second day after cell seeding, 10× compound stock solution was added to each cell culture well, the final concentration was 1×, and DMSO content was 0.1%. DMSO was used as an experimental control (control), medium as the blank control (blank). After the compound and cells were added and cultured for 5 days, 30 μl CellTiter-Glo working solution was added to each well, mixed and incubated for 30 minutes. After 30 minutes at room temperature, 40 μl of the mixture was transferred to a 384-well plate with a non-transparent white bottom, the luminescence chemiluminescence value was read, and the cells proliferation inhibition rate IR (%)=(RLU control-RLU compound)/(RLU control-RLU blank)×100% was calculated, XLFit four-parameter method was used to fit the compound's gradient dilution concentration and the corresponding cell proliferation inhibition rate, and the IC50 value was calculate.

[5] = Homo sapiens, MIA PaCa-2, 120 h

SMILES | pIC50 [1] | pIC50 [2] | pIC50 [3] | pIC50 ([1]; Homo sapiens, NCI-H358, 120 h) | pIC50 ([2]; Homo sapiens, A549, 120 h) | pIC50 ([3]; Homo sapiens, MIA PaCa-2, 2 h) | pIC50 [4, 5] | pIC50 [4]
C=CC(=O)N1CCN2c3nc(=O)n(-c4c(C)ccnc4C(C)C)c4nc(-c5cccc(Cl)c5F)c(Cl)c(c34)OC[C@@H]2C1 (single isomer, unassigned) [Compound Z82-1] | 7.64 | 5.45 | 6.39 |  |  |  |  | 
C=CC(=O)N1CCN2c3nc(=O)n(-c4c(C)ccnc4C(C)C)c4nc(-c5cccc(F)c5F)c(Cl)c(c34)OC[C@@H]2C1 (atropisomer, axis not shown) [Compound Z47-2] | 7.38 | < 5.00 | 6.50 |  |  |  |  | 
C=CC(=O)N1CCN2c3nc(=O)n(-c4c(C)ccnc4C(C)C)c4nc(-c5ccc(F)cc5F)c(Cl)c(c34)OC[C@H]2C1 (single isomer, unassigned) [Compound Z76-1] | 7.40 |  | 6.96 |  | < 5.00 |  |  | 
C=CC(=O)N1CCN2c3nc(=O)n(-c4c(C)ncnc4C(C)C)c4nc(-c5c(O)cccc5F)c(Cl)c(c34)OC[C@H]2C1 (single isomer, unassigned) [Compound Z88-1] | 7.00 |  | 6.45 |  | < 5.00 |  |  | 
C=CC(=O)N1CCN2c3nc(=O)n(-c4c(C)ccnc4C(C)C)c4nc(-c5c(O)cccc5F)c(F)c(c34)OC[C@H]2C1 (atropisomer, axis not shown) [Compound Z73-1] | 8.05 | < 5.00 | 6.94 |  |  |  |  | 
C=CC(=O)N1CCN2c3nc(=O)n(-c4c(C)ccnc4C(C)C)c4nc(-c5c(O)cccc5F)cc(c34)OC[C@@H]2C1 (single isomer, unassigned) [Compound Z36-2] |  |  |  | 7.17 | 4.84 |  | 6.92 | 
C=CC(=O)N1CCN2c3nc(=O)n(-c4c(C)ccnc4C(C)C)c4cc(-c5c(O)cccc5F)c(Cl)c(c34)OC[C@H]2C1 (single isomer, unassigned) [Compound Z29-1] | 8.52 | < 5.00 |  |  |  |  |  | 8.10
C=CC(=O)N1CCN2c3nc(=O)n(-c4c(C)ncnc4C(C)C)c4nc(-c5c(O)cccc5F)c(F)c(c34)OC[C@H]2C1 (single isomer, unassigned) [Compound Z101-1] | 7.38 |  |  |  | < 5.00 |  |  | 7.25
C=CC(=O)N1CCN2c3nc(=O)n(-c4ccccc4C(C)C)c4cc(-c5c(C)ccc6[nH]ncc56)c(Cl)c(c34)OC[C@@H]2C1 (single isomer, unassigned) [Compound Z20-3] | 9.22 | < 5.00 |  |  |  |  |  | 9.30
Cc1ccnc(C(C)C)c1-n1c(=O)nc2c3c(c(Cl)c(-c4ccccc4F)nc31)OC[C@H]1CN(C(=O)/C=C/CN(C)C)CCN21 (single isomer, unassigned) [Compound Z237-2] |  |  |  | 7.33 | < 4.52 |  | 7.32 | 
C=CC(=O)N1CCN2c3nc(=O)n(-c4c(C)ccnc4C(C)C)c4cc(-c5c(C)ccc6[nH]ncc56)cc(c34)OC[C@@H]2C1 (single isomer, unassigned) [Compound Z19-2] | 7.60 | 4.92 |  |  |  |  | 7.62 | 
C=CC(=O)N1CCN2c3nc(=O)n(-c4c(C)ccnc4C(C)C)c4cc(-c5c(C)ccc6[nH]ncc56)c(Cl)c(c34)OC[C@@H]2C1 (single isomer, unassigned) [Compound Z26-1] | 7.51 |  |  |  | 4.86 |  |  | 7.13
C=CC(=O)N1CCN2c3nc(=O)n(-c4ccccc4C(C)C)c4cc(-c5c(C)ccc6[nH]ncc56)c(Cl)c(c34)OC[C@@H]2C1 (single isomer, unassigned) [Compound Z20-1] | 8.00 | 4.91 |  |  |  |  |  | 7.77
C=CC(=O)N1CCN2c3nc(=O)n(-c4c(C)ccnc4C(C)C)c4cc(-c5c(C)ccc6[nH]ncc56)c(Cl)c(c34)OC[C@@H]2C1 (single isomer, unassigned) [Compound Z26-2] | 9.00 | < 5.00 |  |  |  |  |  | 8.40

Continued, values first:

pIC50 [1] | pIC50 [2] | pIC50 [3] | pIC50 ([1]; Homo sapiens, NCI-H358, 120 h) | pIC50 ([2]; Homo sapiens, A549, 120 h) | pIC50 ([3]; Homo sapiens, MIA PaCa-2, 2 h) | pIC50 [4, 5] | pIC50 [4] | SMILES
 |  |  | 8.40 | 5.11 | 7.72 |  |  | C=CC(=O)N1CCN2c3nc(=O)n(-c4c(C)ccnc4C(C)C)c4nc(-c5ccccc5Cl)c(Cl)c(c34)OC[C@H]2C1 [Compound Z90]
 |  |  | 8.40 | < 5.00 | 7.07 |  |  | C=CC(=O)N1CCN2c3nc(=O)n(-c4c(C)ncnc4C(C)C)c4nc(-c5c(O)cccc5F)c(Cl)c(c34)OC[C@H]2C1 [Compound Z88]
 |  |  | 8.70 | < 5.00 | 6.95 |  |  | C=CC(=O)N1CCN2c3nc(=O)n(-c4c(C)ccnc4C(C)C)c4nc(-c5c(F)cccc5OC)c(Cl)c(c34)OC[C@H]2C1 [Compound Z75]
 |  |  | 8.52 | < 5.00 | 7.72 |  |  | C=CC(=O)N1CCN2c3nc(=O)n(-c4c(C)ccnc4C(C)C)c4nc(-c5c(F)cccc5F)c(Cl)c(c34)OC[C@H]2C1 [Compound Z80]
 |  |  | 7.80 | < 5.00 | 6.89 |  |  | C=CC(=O)N1CCN2c3nc(=O)n(-c4c(C)ccnc4C(C)C)c4nc(-c5c(O)cccc5F)c(C=C)c(c34)OC[C@H]2C1 [Compound Z74]
 |  |  | 8.40 | < 5.00 |  | 7.64 |  | C=CC(=O)N1CCN2c3nc(=O)n(-c4c(C)ccnc4C(C)C)c4nc(-c5c(F)ccc(Cl)c5O)c(Cl)c(c34)OC[C@@H]2C1 [Compound Z52, (5 aS)-7-acryloyl-3-chloro-2-(3-chloro-6-fluoro-2-hydroxyphenyl)-12-(2-isopropyl-4-methylpyridin-3-yl)-5,5a,6,7,8,9-hexahydro-4-oxo-1,7,9a,10,12-pentazabenzo[4,5]cyclohepta[1,2,3-de]naphthalen-11 (12H)-one]
8.30 |  |  |  | < 5.00 |  | 7.66 |  | C=CC(=O)N1CCN2c3nc(=O)n(-c4c(C)ccnc4C(C)C)c4nc(-c5cccc(C(F)(F)F)c5F)c(Cl)c(c34)OC[C@@H]2C1 [Compound Z57]
8.10 |  |  |  | 4.98 |  | 8.05 |  | C=CC(=O)N1CCN2c3nc(=O)n(-c4c(C)ccnc4C(C)C)c4nc(-c5c(O)cccc5F)c(Cl)c(c34)OC[C@@H]2C1 [Compound Z24, (5 aS)-7-acryloyl-3-chloro-2-(2-fluoro-6-hydroxyphenyl)-12-(2-isopropyl-4-methylpyridin-3-yl)-5,5a,6,7,8,9-hexahydro-4-oxo-1,7,9a,10,12-pentazabenzo[4,5] cyclohepta[1,2,3-de]naphthalen-11 (12H)-one]
 |  |  | 8.30 | < 5.00 |  | 7.70 |  | C=CC(=O)N1CCN2c3nc(=O)n(-c4c(C)ccnc4C(C)C)c4nc(-c5ccccc5F)c(Cl)c(c34)OC[C@@H]2C1 [Compound Z46]
 |  |  | 6.50 | < 5.00 |  | 6.46 |  | C=CC(=O)N1CCN2c3nc(=O)n(-c4c(C)ccnc4C(C)C)c4cc(-c5cccnc5N)c(Cl)c(c34)OC[C@H]2C1 [Compound Z41]
